This is an account of results in PubChem BioAssay (NCI).

What all share (assay): DTP human tumour cell line panel, 48 h
Assay [1] concerns BT-549 breast.
For assay [2], the system named is HCT-15 colon.
The subject of assay [3] is NCI-H23 lung.
Assay [4] has as its system CCRF-CEM leukemia.
In assay [5] the test system is SK-MEL-28 melanoma.
In assay [6] the test system is K-562 leukemia.
In assay [7] the test system is SK-MEL-5 melanoma.
Assay [8] deals with PC-3 prostate.
The subject of assay [9] is HOP-92 NSCLC.
For assay [10], the system named is CAKI-1 renal.

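96-well plates; 48 h exposure; 5 concentrations. Endpoints by linear interpolation between flanking doses. Not reached: highest tested concentration assigned. Abbreviation: GI50, concentration required for 50% inhibition of growth. The concentration for full growth arrest is given as TGI.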

Regarding `COC(=O)C1=C(O)C(C(=O)OC)[C@@]2(O)[C@@H](C(=O)OC)[C@H](C)[C@@H](C)[C@@H]1[C@@H]2C(=O)OC` (stereo not given in full), the TGI in assay [1], in assay [2], in assay [3], in assay [4], in assay [5] and in assay [6] was > 100 µM each time.
`Nc1nc(Nc2ccc(Cl)cc2)sc1C(=O)c1cccs1`: the TGI in [7], in assay [1], in [2], in assay [8], in [3] and in assay [9] was > 100 µM each time. Also, the total growth inhibition concentration (TGI) in assay [4] and in assay [5] was > 100 µM throughout.
For `OCC(O)C(O)C(O)/C=N/Nc1nc(O)c(/C=C2\C=Nc3ccccc32)[nH]1` (stereo not given), the concentration for total growth inhibition (TGI) in assay [7], in [1], in assay [2], in assay [3], in assay [9] and in assay [4] was > 100 µM each time. Further, the TGI in assay [5], in assay [6] and in assay [10] was > 100 µM in each case.
Consider `O=C1CCc2ccc3c(c21)CC1(Cc2ccccc2C1)C3`, for which the TGI was 11.4 µM in assay [7]; > 100 µM in assay [1]; > 100 µM in [2]; > 100 µM in assay [8]; > 100 µM in assay [3]; 45.9 µM in assay [9]. Moreover, the concentration for total growth inhibition (TGI) in assay [4] is > 100 µM; in assay [5] it was 88.9 µM; in [10], > 100 µM.
For the compound `CCCCN(CCCC)C(=C(C(Cl)=C(Cl)Cl)[N+](=O)[O-])N(CCCC)CCCC`, the TGI in assay [7], in assay [1], in assay [2], in [8], in [3] and in [9] was > 100 µM each time. The TGI in assay [5] was > 100 µM; in [6], 4.69 µM; in assay [10], > 100 µM.
Regarding `N#Cc1c(C#N)c(-c2ccccc2)n(-c2ccccc2)c1N`, the TGI in [7], in [1], in [2], in assay [8], in [3] and in assay [4] was > 100 µM throughout. Besides, the TGI in [6] and in assay [10] was > 100 µM in each case.
For the compound `O/C(=C\c1nc2ccccc2nc1NC12CC3CC(CC(C3)C1)C2)c1ccc(Br)cc1`, the total growth inhibition concentration (TGI) in [7], in assay [1], in assay [2], in assay [8], in [3] and in [4] was > 10 µM in each case. The concentration for total growth inhibition (TGI) in assay [5], in assay [6] and in assay [10] was > 10 µM each time.
On to `COc1ccc(/C=N/N2C(=O)c3c(N)c(C#N)c(-c4ccccc4)c(-c4ccccc4)c3C2=O)cc1`, for which the concentration for total growth inhibition (TGI) in assay [7], in assay [1], in assay [2], in [8], in assay [9] and in [4] was > 100 µM each time. Further, the TGI in assay [5], in [6] and in assay [10] was > 100 µM throughout.
For `CSC(SC)=C1C(=O)N(c2ccccc2)N=C1C`, the TGI is 24.3 µM in [7]; 81.9 µM in assay [1]; > 100 µM in assay [2]; > 100 µM in assay [8]; 33.7 µM in assay [9]; 49.8 µM in assay [4]. The results for the TGI in assay [6] and in [10] were 66.8 µM and 65.8 µM, respectively.
As for `O=C(O)CSC(NC(=O)C(C(F)(F)F)C(F)(F)F)(C(F)(F)F)C(F)(F)F`, the total growth inhibition concentration (TGI) in assay [7], in [1], in assay [2], in assay [8], in [3] and in [4] was > 100 µM throughout. Also, the concentration for total growth inhibition (TGI) in assay [5], in assay [6] and in assay [10] was > 100 µM each time.
In the case of `C=C(C)[C@@]1(O[Si](C)(C)C)CCCC[C@@H]1CC(Sc1ccccc1)Sc1ccccc1`, the total growth inhibition concentration (TGI) amounted to 34.8 µM in assay [7]; 28.6 µM in [2]; 27.4 µM in assay [8]; 30.9 µM in assay [3]; 26 µM in assay [9]; 36.2 µM in [4]. Further, the TGI worked out at 37 µM in [5], 41.2 µM in assay [6] and 25.8 µM in [10].
Take `Cc1c(C#N)c(N)n(C2OCC(O)C(O)C2O)c(=S)c1C#N` (stereo not given): the concentration for total growth inhibition (TGI) in assay [7], in assay [1], in assay [2], in assay [8], in [3] and in assay [4] was > 100 µM each time. Besides, the TGI in assay [5], in [6] and in assay [10] was > 100 µM each time.
Turning to `Cc1cn([C@H]2C[C@](C)(CO)N(C)O2)c(=O)[nH]c1=O`, the TGI in assay [7], in assay [1], in [8], in assay [3], in assay [9] and in [5] was > 100 µM in each case. The concentration for total growth inhibition (TGI) in [6] and in [10] was > 100 µM in each case.
Consider `COP(=O)(OC)C12CCOCCN1c1ccccc1C2=O` (stereo not given), for which the TGI in [7], in [1], in assay [2], in assay [8], in [3] and in [9] was > 100 µM in each case. The TGI in [4], in assay [5] and in [10] was > 100 µM throughout.
Regarding `CCOC(=O)C1CN(C2CC2)CCC1=O` (stereo not given), the TGI in assay [7], in assay [1], in assay [2], in assay [8], in assay [3] and in assay [4] was > 100 µM each time. The TGI in [5], in assay [6] and in [10] was > 100 µM throughout.
Take `COC(=O)C1(Cc2ccc3c(c2)CCC3)Cc2ccccc2C1=O` (stereo not given): the TGI in assay [7] was 18.1 µM; in assay [1] it was 41.7 µM; in [2] it was > 100 µM; in assay [8], > 100 µM; in assay [3], 95.4 µM; in assay [4] it was 67.2 µM. Further, the total growth inhibition concentration (TGI) in [5] is 40.3 µM; in [6] it was 48.4 µM; in [10] it was > 100 µM.
Take `O=C(O)CC(NC(=O)/C(=C/c1ccccc1O)NC(=O)c1ccccc1)C(=O)O` (stereo not given): the total growth inhibition concentration (TGI) in assay [7], in [1], in assay [2], in assay [8], in assay [3] and in assay [4] was > 100 µM in each case. For the same compound, the total growth inhibition concentration (TGI) in assay [5], in assay [6] and in assay [10] was > 100 µM in each case.
Regarding `CC1=CC(=O)CC2(C)CCC(C(C)CC(=O)CC(C)C)CC12` (stereo not given), the TGI in assay [7] is 36.4 µM; in assay [2], > 100 µM; in assay [8], 40.7 µM; in [3], > 100 µM; in [9], > 100 µM; in [4] it was 61.2 µM. Besides, the TGI in assay [5] was 72.9 µM; in assay [6], > 100 µM; in [10], 30.2 µM.
On to `N#CC(=N)c1ncn(-c2ccccc2N)c1N`, for which the concentration for total growth inhibition (TGI) in assay [7], in assay [1], in assay [2], in assay [8], in assay [3] and in assay [4] was > 100 µM in each case. Also, the TGI in assay [5], in assay [6] and in assay [10] was > 100 µM in each case.
As to `O=C1CS(=O)C23c4cc5ccccc5n4CCC2CCCN13` (stereo not given), the TGI in assay [7], in [1], in [2], in assay [8], in assay [3] and in [9] was > 100 µM in each case. The TGI in assay [5], in [6] and in assay [10] was > 100 µM in each case.
Turning to `O=c1n(Cc2ccccc2)c(=O)n2c(=O)n(Cc3ccccc3)c(=O)n12`, the TGI in assay [7], in assay [1], in assay [2], in assay [3], in assay [9] and in assay [4] was > 100 µM in each case. In addition, the total growth inhibition concentration (TGI) in assay [5], in assay [6] and in [10] was > 100 µM each time.
On to `O=C(CNCc1ccccc1)Oc1c(Cl)c(Cl)c(Cl)c(Cl)c1Cl`, for which the TGI is 44.2 µM in [1]; 61 µM in assay [2]; 48.1 µM in assay [8]; > 100 µM in assay [3]; > 100 µM in assay [5]; > 100 µM in [6]. For the same compound, the TGI in assay [10] was determined as 56.1 µM.
On to `COC(=O)C1OC(O[C@H]2CC[C@]3(C)[C@H]4CC=C5[C@@H]6CC(C)(C)CC[C@]6(C(=O)OC6OCC(O)C(O)C6OC6OC(C)C(OC7OCC(OC8OCC(O)C(O)C8O)C(O)C7O)C(O)C6O)[C@H](O)C[C@@]5(C)[C@]4(C)CC[C@H]3C2(C)C)C(O)C(O)C1O` (stereo not given in full), for which the concentration for total growth inhibition (TGI) in assay [7] was determined as 11.6 µM; in [1] it was 4.4 µM; in [2], 22.7 µM; in assay [8], 15.5 µM; in assay [3], 6.53 µM; in [9], 4.77 µM. The values for the TGI in assay [4], in assay [5] and in assay [10] were > 100 µM, 4.24 µM and 11.7 µM, respectively.
As to `CCCOC(=O)NC(C)C(=O)NC(CCC(=O)NC(CCCC(N)C(=O)O)C(=O)NC(C)C(=O)O)C(=O)O` (stereo not given), the TGI in assay [7] is 30.5 µM; in assay [1], 37.9 µM; in assay [2] it was 34.6 µM; in assay [8] it was 53.7 µM; in assay [3], > 100 µM; in [9], 77.4 µM. The total growth inhibition concentration (TGI) in [4] was found to be 36.9 µM; in assay [5], 44.9 µM; in assay [10] it was 40.7 µM.
For `CN(C)P(=O)(Oc1occc1C(O)Cc1ccccc1)N(C)C` (stereo not given), the TGI in [7], in assay [1], in [2], in assay [8], in assay [3] and in assay [4] was > 100 µM in each case. Further, the TGI in assay [5] and in assay [10] was > 100 µM each time.
In the case of `c1csc(-c2c3ccc(=[N+]4CCCCC4)cc-3oc3cc(N4CCCCC4)ccc23)c1`, the GI50 in [7] was 0.141 µM; in assay [1] it was 0.135 µM; in assay [8], 0.0373 µM; in [9], 0.127 µM; in [4], 0.0503 µM; in assay [5] it was 0.143 µM. In assay [10], the GI50 is 0.131 µM. For the same compound, the total growth inhibition concentration (TGI) amounted to 0.276 µM in assay [7]; 0.32 µM in assay [1]; 0.177 µM in assay [8]; 0.309 µM in [9]; 1.07 µM in [4]; 0.293 µM in assay [5]. The compound also showed a TGI in assay [10] of 0.305 µM.
Take `CN1COCc2cc3cc4c(cc3nc21)OCCO4`: the total growth inhibition concentration (TGI) in [7], in [1], in [2], in [8], in [9] and in assay [4] was > 100 µM each time. The TGI in assay [6] and in assay [10] was > 100 µM throughout.
As to `O=C(Nc1ccc(-n2cc(-c3ccncc3)c(-c3ccc(O)c(Cl)c3)n2)cc1)Nc1cccc(Cl)c1Cl`, the GI50 is 3.26 µM in [7]; 5.33 µM in [2]; 1.73 µM in [8]; 14.6 µM in assay [3]; 1.16 µM in [9]; 2.47 µM in [4]. The GI50 in assay [5] was 5.8 µM; in assay [6] it was 5.4 µM; in assay [10], > 32.5 µM. The TGI was > 32.5 µM in assay [7]; > 32.5 µM in assay [2]; 14.3 µM in assay [8]; > 32.5 µM in assay [3]; 9.84 µM in [9]; > 32.5 µM in assay [4]. Also, the concentration for total growth inhibition (TGI) in assay [5] was 18 µM; in assay [6], > 32.5 µM; in assay [10], > 32.5 µM.
